Where two headings read alike, the source gives them in different places. *1 amine or outer side, *2 acyl side, *3 side chain or, on linkers, in order; H or OH if unused. Where a SMILES comes first, the peptide text is derived from it. Side-chain parts run from the residue outwards. [ ]: non-standard residue; d: D form. The star is where a group is joined. Undecanoyl(11-OPh(4-COOH)) = O=C(O)c1ccc(OCCCCCCCCCCC(=O)*)cc1; Decanoyl(10-(4-HOOC-PhO)) = O=C(O)c1ccc(OCCCCCCCCCC(=O)*)cc1; αMePhe(2-F) = C[C@](N)(Cc1ccccc1F)C(=O)O; γGlu = O=C(O)[C@H](CCC(=O)[*:2])N[*:1]; αMeY = C[C@](N)(Cc1ccc(O)cc1)C(=O)O; 4Pal = N[C@@H](Cc1ccncc1)C(=O)O; αMeL = CC(C)C[C@](C)(N)C(=O)O; Orn = NCCC[C@H](N)C(=O)O; AEEA = NCCOCCOCC(=O)O; Aib = CC(C)(N)C(=O)O
What was measured:
Format in all cases: cell-based
hGIPR = biological target: T1, hGIPR (Homo sapiens, UniProt P48546); assay: Functional cAMP formation (HTRF) in HEK-293 clonal cells expressing hGIPR, 0.1% bovine casein, without or with 1.0% human serum albumin; details: for EC50: hGIPR EC50, nM (SEM, n), geometric mean
T1 construct: expressed in transfected cells
T1 sequence (P48546 22-466): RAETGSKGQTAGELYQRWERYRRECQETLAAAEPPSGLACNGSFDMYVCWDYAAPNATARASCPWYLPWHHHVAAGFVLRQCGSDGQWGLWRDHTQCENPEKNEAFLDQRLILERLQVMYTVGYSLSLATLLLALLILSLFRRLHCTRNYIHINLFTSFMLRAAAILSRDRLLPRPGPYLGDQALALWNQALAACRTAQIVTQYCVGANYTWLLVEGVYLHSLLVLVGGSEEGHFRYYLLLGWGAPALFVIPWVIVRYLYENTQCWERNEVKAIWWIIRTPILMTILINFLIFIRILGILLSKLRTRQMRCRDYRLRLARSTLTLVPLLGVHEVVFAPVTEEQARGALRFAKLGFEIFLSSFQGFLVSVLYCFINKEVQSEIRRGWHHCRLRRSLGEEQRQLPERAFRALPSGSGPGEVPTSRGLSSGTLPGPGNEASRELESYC
How it was run: (§1)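 Readings of the HTRF 665/620 nm ratio, which falls as cAMP rises, were converted to nM cAMP using a standard curve after 30 min peptide exposure at 37° C.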

hGCGR = biological target: T2, hGCGR (Homo sapiens, UniProt P47871); assay: Functional cAMP formation (HTRF) in HEK-293 clonal cells expressing hGCGR, 0.1% bovine casein, without or with 1.0% human serum albumin; details: hGCGR EC50, nM (SEM, n), geometric mean
T2 construct: expressed in transfected cells
T2 sequence (P47871 26-477): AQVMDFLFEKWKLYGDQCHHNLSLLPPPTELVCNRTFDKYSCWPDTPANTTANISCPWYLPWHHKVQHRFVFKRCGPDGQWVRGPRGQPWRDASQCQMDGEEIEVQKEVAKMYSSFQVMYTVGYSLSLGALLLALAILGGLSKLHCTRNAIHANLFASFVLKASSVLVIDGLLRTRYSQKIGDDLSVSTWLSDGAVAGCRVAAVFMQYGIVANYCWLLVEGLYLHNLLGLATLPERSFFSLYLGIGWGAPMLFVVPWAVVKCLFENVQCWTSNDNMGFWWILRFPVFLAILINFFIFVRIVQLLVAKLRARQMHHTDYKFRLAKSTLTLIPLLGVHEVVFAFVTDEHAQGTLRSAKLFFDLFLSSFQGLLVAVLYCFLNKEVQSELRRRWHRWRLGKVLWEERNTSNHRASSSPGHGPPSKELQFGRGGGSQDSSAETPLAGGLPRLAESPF
How it was run: as §1

hGLP-1R = hGLP-1R (Homo sapiens, UniProt P43220); assay: Functional cAMP formation (HTRF) in HEK-293 clonal cells expressing hGLP-1R, 0.1% bovine casein, without or with 1.0% human serum albumin; set-up: expressed in transfected cells; details: for EC50: hGLP-1R EC50, nM (SEM, n), cAMP, incubated at 37° C., 0.1% bovine casein (no human serum albumin), geometric mean
hGLP-1R, sequence (P43220 24-463): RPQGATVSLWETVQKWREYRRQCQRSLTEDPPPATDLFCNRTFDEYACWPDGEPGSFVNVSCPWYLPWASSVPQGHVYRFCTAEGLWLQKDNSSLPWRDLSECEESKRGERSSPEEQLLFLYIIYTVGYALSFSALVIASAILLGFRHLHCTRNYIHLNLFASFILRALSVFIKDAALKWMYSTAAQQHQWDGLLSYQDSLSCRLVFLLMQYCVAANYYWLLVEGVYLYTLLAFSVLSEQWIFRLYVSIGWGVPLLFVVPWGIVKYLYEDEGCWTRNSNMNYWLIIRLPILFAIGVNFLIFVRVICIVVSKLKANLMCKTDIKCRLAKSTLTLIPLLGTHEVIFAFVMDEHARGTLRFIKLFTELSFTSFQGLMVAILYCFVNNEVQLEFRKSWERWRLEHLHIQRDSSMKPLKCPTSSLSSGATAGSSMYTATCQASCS
How it was run: as §1

[1] = HEK293, read-out: hGIPR Emax, % ± SEM, 0.1% bovine casein and 1.0% human serum albumin, 37° C., percent of maximal response to GIP(1-42)NH2
[2] = HEK293, read-out: hGIPR Emax, % ± SEM, percent of maximal response to GIP(1-42)NH2, 37° C., 0.1% bovine casein, arithmetic mean
[3] = cAMP, incubated at 37° C., 0.1% bovine casein (no human serum albumin)
[4] = 0.1% bovine casein and 1.0% human serum albumin, 37° C.
[5] = HEK293, read-out: hGLP-1R Emax, % ± SEM, 0.1% bovine casein and 1.0% human serum albumin, 37° C., percent of maximal response to GLP-1(7-36)NH2
[6] = HEK293, read-out: hGLP-1R Emax, % ± SEM, percent of maximal response to GLP-1(7-36)NH2, 37° C., 0.1% bovine casein, arithmetic mean

CC[C@H](C)[C@H](NC(=O)[C@H](CCCN)NC(=O)[C@H](CC(=O)O)NC(=O)[C@H](CC(C)C)NC(=O)[C@](C)(CC(C)C)NC(=O)[C@@H](NC(=O)C(C)(C)NC(=O)[C@H](Cc1ccc(O)cc1)NC(=O)[C@H](CC(=O)O)NC(=O)[C@H](CO)NC(=O)[C@@H](NC(=O)[C@](C)(Cc1ccccc1F)NC(=O)[C@@H](NC(=O)CNC(=O)[C@H](CCC(=O)O)NC(=O)C(C)(C)NC(=O)[C@@H](N)Cc1ccc(O)cc1)[C@@H](C)O)[C@@H](C)O)[C@@H](C)CC)C(=O)N[C@@H](C)C(=O)N[C@@H](CCC(N)=O)C(=O)NC(C)(C)C(=O)N[C@@H](CCCCNC(=O)COCCOCCNC(=O)COCCOCCNC(=O)CC[C@H](NC(=O)CCCCCCCCCOc1ccc(C(=O)O)cc1)C(=O)O)C(=O)N[C@@H](Cc1ccccc1)C(=O)N[C@H](C(=O)N[C@H](CCC(=O)O)C(=O)N[C@@](C)(Cc1ccc(O)cc1)C(=O)N[C@@H](CC(C)C)C(=O)N[C@H](C(=O)N[C@@H](CCC(=O)O)C(=O)NCC(=O)NCC(=O)N1CCC[C@H]1C(=O)N[C@@H](CO)C(=O)N[C@@H](CO)C(=O)NCC(=O)N[C@@H](C)C(=O)N1CCC[C@H]1C(=O)N1CCC[C@H]1C(=O)N1CCC[C@H]1C(=O)N[C@@H](CO)C(=O)N[C@@H](CCCCNC(=O)COCCOCCNC(=O)COCCOCCNC(=O)CC[C@H](NC(=O)CCCCCCCCCOc1ccc(C(=O)O)cc1)C(=O)O)C(N)=O)[C@@H](C)CC)[C@@H](C)CC [Example 241] (H-Y[Aib]EGT[αMePhe(2-F)]TSDY[Aib]I[αMeL]LD[Orn]IAQ[Aib]K([AEEA-AEEA-γGlu-Decanoyl(10-(4-HOOC-PhO))])FI[dE][αMeY]LIEGGPSSGAPPPSK([AEEA-AEEA-γGlu-Decanoyl(10-(4-HOOC-PhO))])-NH2; N-terminus assumed) gave an Emax (hGIPR; [1]) of 84.9%, an Emax (hGIPR; [2]) of 105% and an EC50 (hGIPR; [3]) of 0.0213 nM. For the same compound, the EC50 (hGCGR; [4]) was greater than 9950 nM, the EC50 (hGCGR; [3]) was greater than 9950 nM and the Emax (hGLP-1R; [5]) was 105%. The Emax (hGLP-1R; [6]) was 91% and the EC50 (hGLP-1R) was 0.362 nM.
Work on CC[C@H](C)[C@H](NC(=O)[C@H](CCCN)NC(=O)[C@H](CC(=O)O)NC(=O)[C@H](CC(C)C)NC(=O)[C@](C)(CC(C)C)NC(=O)[C@@H](NC(=O)C(C)(C)NC(=O)[C@H](Cc1ccncc1)NC(=O)[C@H](CC(=O)O)NC(=O)[C@H](CO)NC(=O)[C@@H](NC(=O)[C@](C)(Cc1ccccc1F)NC(=O)[C@@H](NC(=O)CNC(=O)[C@H](CCC(=O)O)NC(=O)C(C)(C)NC(=O)[C@@H](N)Cc1ccc(O)cc1)[C@@H](C)O)[C@@H](C)O)[C@@H](C)CC)C(=O)N[C@@H](C)C(=O)N[C@@H](CCC(N)=O)C(=O)NC(C)(C)C(=O)N[C@@H](CCCCNC(=O)COCCOCCNC(=O)COCCOCCNC(=O)CC[C@H](NC(=O)CCCCCCCCCCOc1ccc(C(=O)O)cc1)C(=O)O)C(=O)N[C@@H](Cc1ccccc1)C(=O)N[C@H](C(=O)N[C@H](CCC(=O)O)C(=O)N[C@@](C)(Cc1ccc(O)cc1)C(=O)N[C@@H](CC(C)C)C(=O)N[C@H](C(=O)N[C@@H](CCC(=O)O)C(=O)NCC(=O)NCC(=O)N1CCC[C@H]1C(=O)N[C@@H](CO)C(=O)N[C@@H](CO)C(=O)NCC(=O)N[C@@H](C)C(=O)N1CCC[C@H]1C(=O)N1CCC[C@H]1C(=O)N1CCC[C@H]1C(=O)N[C@@H](CO)C(=O)N[C@@H](CCCCNC(=O)COCCOCCNC(=O)COCCOCCNC(=O)CC[C@H](NC(=O)CCCCCCCCCCOc1ccc(C(=O)O)cc1)C(=O)O)C(N)=O)[C@@H](C)CC)[C@@H](C)CC [Example 242] (H-Y[Aib]EGT[αMePhe(2-F)]TSD[4Pal][Aib]I[αMeL]LD[Orn]IAQ[Aib]K([AEEA-AEEA-γGlu-Undecanoyl(11-OPh(4-COOH))])FI[dE][αMeY]LIEGGPSSGAPPPSK([AEEA-AEEA-γGlu-Undecanoyl(11-OPh(4-COOH))])-NH2) yielded an Emax (hGIPR; [1]) of 83.9%, an Emax (hGIPR; [2]) of 100% and an EC50 (hGIPR; [3]) of 0.0197 nM. For the same compound, the EC50 (hGCGR; [4]) was greater than 9950 nM, the EC50 (hGCGR; [3]) was greater than 9950 nM and the Emax (hGLP-1R; [6]) was 96.3%. It also gave an EC50 (hGLP-1R) of 0.584 nM.
Work on CC[C@H](C)[C@H](NC(=O)[C@H](CC(C)C)NC(=O)[C@](C)(Cc1ccc(O)cc1)NC(=O)[C@@H](CCC(=O)O)NC(=O)[C@@H](NC(=O)[C@H](Cc1ccccc1)NC(=O)[C@H](CCCCNC(=O)COCCOCCNC(=O)COCCOCCNC(=O)CC[C@H](NC(=O)CCCCCCCCCOc1ccc(C(=O)O)cc1)C(=O)O)NC(=O)C(C)(C)NC(=O)[C@H](CCC(N)=O)NC(=O)[C@H](C)NC(=O)[C@H](CCCCNC(=O)COCCOCCNC(=O)COCCOCCNC(=O)CC[C@H](NC(=O)CCCCCCCCCOc1ccc(C(=O)O)cc1)C(=O)O)NC(=O)[C@H](CCCN)NC(=O)[C@H](CC(=O)O)NC(=O)[C@H](CC(C)C)NC(=O)[C@](C)(CC(C)C)NC(=O)[C@@H](NC(=O)C(C)(C)NC(=O)[C@H](Cc1ccncc1)NC(=O)[C@H](CC(=O)O)NC(=O)[C@H](CO)NC(=O)[C@@H](NC(=O)[C@](C)(Cc1ccccc1F)NC(=O)[C@@H](NC(=O)CNC(=O)[C@H](CCC(=O)O)NC(=O)C(C)(C)NC(=O)[C@@H](N)Cc1ccc(O)cc1)[C@@H](C)O)[C@@H](C)O)[C@@H](C)CC)[C@@H](C)CC)C(=O)N[C@@H](CCC(=O)O)C(=O)NCC(=O)NCC(=O)N1CCC[C@H]1C(=O)N[C@@H](CO)C(=O)N[C@@H](CO)C(=O)NCC(=O)N[C@@H](C)C(=O)N1CCC[C@H]1C(=O)N1CCC[C@H]1C(=O)N1CCC[C@H]1C(=O)N[C@@H](CO)C(N)=O [Example 243] yielded an Emax (hGIPR; [1]) of 90.5%, an EC50 (hGIPR; [4]) of 0.728 nM and an EC50 (hGIPR; [3]) of 0.0154 nM. For the same compound, the EC50 (hGCGR; [4]) was greater than 9950 nM, the EC50 (hGCGR; [3]) was greater than 9950 nM and the Emax (hGLP-1R; [5]) was 114%. For the same compound, the Emax (hGLP-1R; [6]) was 93.2% and the EC50 (hGLP-1R) was 0.86 nM.
With CC[C@H](C)[C@H](NC(=O)[C@H](CC(C)C)NC(=O)[C@](C)(Cc1ccc(O)cc1)NC(=O)[C@@H](CCC(=O)O)NC(=O)[C@@H](NC(=O)[C@H](Cc1ccccc1)NC(=O)[C@H](CCC(=O)O)NC(=O)C(C)(C)NC(=O)[C@H](CCC(N)=O)NC(=O)[C@H](C)NC(=O)[C@H](CCCCNC(=O)COCCOCCNC(=O)COCCOCCNC(=O)CC[C@H](NC(=O)CCCCCCCCCOc1ccc(C(=O)O)cc1)C(=O)O)NC(=O)[C@H](CCCN)NC(=O)[C@H](CC(=O)O)NC(=O)[C@H](CC(C)C)NC(=O)[C@](C)(CC(C)C)NC(=O)[C@@H](NC(=O)C(C)(C)NC(=O)[C@H](Cc1ccncc1)NC(=O)[C@H](CC(=O)O)NC(=O)[C@H](CO)NC(=O)[C@@H](NC(=O)[C@](C)(Cc1ccccc1F)NC(=O)[C@@H](NC(=O)CNC(=O)[C@H](CCC(=O)O)NC(=O)C(C)(C)NC(=O)[C@@H](N)Cc1ccc(O)cc1)[C@@H](C)O)[C@@H](C)O)[C@@H](C)CC)[C@@H](C)CC)C(=O)N[C@@H](CCCCNC(=O)COCCOCCNC(=O)COCCOCCNC(=O)CC[C@H](NC(=O)CCCCCCCCCOc1ccc(C(=O)O)cc1)C(=O)O)C(=O)NCC(=O)NCC(=O)N1CCC[C@H]1C(=O)N[C@@H](CO)C(=O)N[C@@H](CO)C(=O)NCC(=O)N[C@@H](C)C(=O)N1CCC[C@H]1C(=O)N1CCC[C@H]1C(=O)N1CCC[C@H]1C(=O)N[C@@H](CO)C(N)=O [Example 244] the Emax (hGIPR; [1]) was 89.5%, the EC50 (hGIPR; [3]) was 0.0218 nM and the EC50 (hGCGR; [4]) was greater than 9950 nM. For the same compound, the EC50 (hGCGR; [3]) was greater than 9950 nM, the Emax (hGLP-1R; [5]) was 96.3% and the EC50 (hGLP-1R) was 2.25 nM.
